Data: patent US10280169B2, “Biaryl bruton's tyrosine kinase inhibitors” (BIOGEN MA INC., priority 2013, dated 2019)

Legend:
[1] = molecular target: T1, BTK (Homo sapiens, UniProt Q06187); test: In vitro BTK kinase assay: BTK-POLYGAT-LS assay; type: biochemical; conditions: 10 uM ATP, read-out: IC50 (10 uMATP)
T1 construct: purchased Upstate 14-552

[2] = molecular target: T2, pBTK (Homo sapiens, UniProt Q06187); test: In vitro PD assay in whole blood (pBTK assay); type: cell-based; conditions: 30 min at 37° C.
T2 construct: Heparinized venous blood was purchased from Bioreclamation, Inc. or SeraCare Life Sciences; tissue Bioreclamation, Inc. or SeraCare Life Sciences; host or cells: heparinized venous whole blood
T2 sequence (Q06187 whole entry): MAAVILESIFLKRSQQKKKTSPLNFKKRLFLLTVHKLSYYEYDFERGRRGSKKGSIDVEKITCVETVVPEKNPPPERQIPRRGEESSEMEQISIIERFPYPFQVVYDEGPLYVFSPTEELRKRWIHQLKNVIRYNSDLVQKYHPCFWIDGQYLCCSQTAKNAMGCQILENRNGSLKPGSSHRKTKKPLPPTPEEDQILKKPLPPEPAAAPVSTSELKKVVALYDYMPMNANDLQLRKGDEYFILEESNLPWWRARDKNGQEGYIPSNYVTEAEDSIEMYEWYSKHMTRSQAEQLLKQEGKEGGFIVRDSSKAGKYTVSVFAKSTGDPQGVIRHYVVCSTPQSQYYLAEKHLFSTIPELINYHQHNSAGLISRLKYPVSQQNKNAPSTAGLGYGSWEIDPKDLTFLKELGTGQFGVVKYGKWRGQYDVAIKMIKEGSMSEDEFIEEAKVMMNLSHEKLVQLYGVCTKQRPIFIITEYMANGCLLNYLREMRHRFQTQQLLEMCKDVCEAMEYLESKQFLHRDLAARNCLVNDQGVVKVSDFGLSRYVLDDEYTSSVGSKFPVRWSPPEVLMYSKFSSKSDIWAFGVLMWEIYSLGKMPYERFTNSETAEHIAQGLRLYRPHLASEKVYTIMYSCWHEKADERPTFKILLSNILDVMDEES
Method: Heparinized venous blood was purchased from Bioreclamation, Inc. or SeraCare Life Sciences and shipped overnight. Whole blood was aliquoted into 96-well plate and “spiked” with serial dilutions of test compound in DMSO or with DMSO without drug. The final concentration of DMSO in all wells was 0.1%. The plate was incubated at 37° C. for 30 min. Lysis buffer containing protease and phosphatase inhibitors was added to the drug-containing samples and one of the DMSO-only samples (+PPi, high control), while lysis buffer containing protease inhibitors was added to the other DMSO-only samples (−PPi, low control). All of the lysed whole blood samples were subjected to the total BTK capture and phosphotyrosine detection method described in Example 30. ECL values were graphed in Prism and a best-fit curve with restrictions on the maximum and minimum defined by the +PPi high and −PPi low controls was used to estimate the test compound concentration that results in 50% inhibition of ECL signal by interpolation.
In some instances where a compound tested has activity “D”, other structurally similar compounds beyond the measurable limits of the assay are not included in Table 2.

T1 sequence (Q06187 whole entry): as above

Row | SMILES | IC50 [1] | IC50 [2]
1 | Cc1cc(-c2ncnc3[nH]c(C4=CCS(=O)(=O)CC4)cc23)ccc1CNC(=O)c1cnc(C(C)(C)C)s1 [Example I-21, 2-(tert-butyl)-N-(4-(6-(1,1-dioxido-3,6-dihydro-2H-thiopyran-4-yl)-7H-pyrrolo[2,3-d]pyrimidin-4-yl)-2-methylbenzyl)thiazole-5-carboxamide] | < 0.01 µM | < 0.5 µM
2 | Cc1cc(-c2ncnc3nc(N4CCC(N(C)C)CC4)[nH]c23)ccc1CNC(=O)c1cnc(C(C)(C)C)s1 [Example I-49, 2-(tert-butyl)-N-(4-(8-(4-(dimethylamino)piperidin-1-yl)-7H-purin-6-yl)-2-methylbenzyl)thiazole-5-carboxamide] | < 0.01 µM | 0.5 to 1.5 µM
3 | Cc1cc(-c2ncnc3cc(C4CCN(C)CC4)[nH]c23)ccc1CNC(=O)c1cnc(C(C)(C)C)s1 [Example I-25, 2-(tert-butyl)-N-(2-methyl-4-(6-(1-methylpiperidin-4-yl)-5H-pyrrolo[3,2-d]pyrimidin-4-yl)benzyl)thiazole-5-carboxamide] | < 0.01 µM | 0.5 to 1.5 µM
4 | CCn1cc(-c2cc3ncnc(-c4ccc(CNC(=O)c5ncc(C(C)(C)C)s5)c(C)c4)c3[nH]2)cn1 [Example I-40, 5-(tert-butyl)-N-(4-(6-(1-ethyl-1H-pyrazol-4-yl)-5H-pyrrolo[3,2-d]pyrimidin-4-yl)-2-methylbenzyl)thiazole-2-carboxamide] | < 0.01 µM | < 0.5 µM
5 | CC(C)(C)c1ncc(C(=O)NC(CO)c2ccc(-c3ncnc4[nH]c(C5=CCS(=O)(=O)CC5)cc34)cc2)s1 (stereo not drawn) [Example I-30, 2-(tert-butyl)-N-(1-(4-(6-(1,1-dioxido-3,6-dihydro-2H-thiopyran-4-yl)-7H-pyrrolo[2,3-d]pyrimidin-4-yl)phenyl)-2-hydroxyethyl)thiazole-5-carboxamide] | < 0.01 µM | 1.5 to 10 µM
6 | Cc1cc(-c2ncnc3cc(-c4cnn(C)c4)[nH]c23)ccc1C(C)NC(=O)c1cnc(C(C)(C)C)s1 (stereo not drawn) [Example I-46, 2-(tert-butyl)-N-(1-(2-methyl-4-(6-(1-methyl-1H-pyrazol-4-yl)-5H-pyrrolo[3,2-d]pyrimidin-4-yl)phenyl)ethyl)thiazole-5-carboxamide] | < 0.01 µM | < 0.5 µM
7 | Cc1cc(-c2ncnc3cc(-c4cn(C)nc4C)[nH]c23)ccc1CNC(=O)c1cnc(C(C)(C)C)s1 [Example I-39, 2-(tert-butyl)-N-(4-(6-(1,3-dimethyl-1H-pyrazol-4-yl)-5H-pyrrolo[3,2-d]pyrimidin-4-yl)-2-methylbenzyl)thiazole-5-carboxamide] | < 0.01 µM | < 0.5 µM
8 | Cc1cc(-c2ncnc3cc(-c4cnn(C)c4)[nH]c23)ccc1CNC(=O)c1ncc(C(C)(C)C)s1 [Example I-36] | < 0.01 µM | < 0.5 µM
9 | Cc1cc(-c2ncnc3[nH]c(-c4ccc(C(=O)N5CCOCC5)cc4)cc23)ccc1CNC(=O)c1cnc(C(C)(C)C)s1 [Example I-20] | < 0.01 µM | < 0.5 µM
10 | Cc1cc(-c2ncnc3cc[nH]c23)ccc1CNC(=O)c1cnc(C(C)(C)C)s1 [Example I-115, 2-(tert-butyl)-N-(2-methyl-4-(5H-pyrrolo[3,2-d]pyrimidin-4-yl)benzyl)thiazole-5-carboxamide] | < 0.01 µM | 0.5 to 1.5 µM
11 | Cn1cc(-c2cc3c(-c4ccc5c(c4)CCCC5NC(=O)c4cnc(C(C)(C)C)s4)ncnc3[nH]2)cn1 (stereo not drawn) [Example I-34, 2-(tert-butyl)-N-(6-(6-(1-methyl-1H-pyrazol-4-yl)-7H-pyrrolo[2,3-d]pyrimidin-4-yl)-1,2,3,4-tetrahydronaphthalen-1-yl)thiazole-5-carboxamide] | < 0.01 µM | < 0.5 µM
12 | Cc1cc(-c2ncnc3cc(-c4cnn(C)c4)[nH]c23)ccc1C(CO)NC(=O)c1cnc(C(C)(C)C)s1 (stereo not drawn) [Example I-44, 2-(tert-butyl)-N-(2-hydroxy-1-(2-methyl-4-(6-(1-methyl-1H-pyrazol-4-yl)-5H-pyrrolo[3,2-d]pyrimidin-4-yl)phenyl)ethyl)thiazole-5-carboxamide] | < 0.01 µM | 0.5 to 1.5 µM
